Measurements as given in US20230312528A1, “2-OXO-IMIDAZOLIDINE-4-CARBOXAMIDES AS NAV1.8 INHIBITORS” (Merck Sharp & Dohme LLC, priority 2020, published 2023).
Several values for one entry are separate records, joined by “and”; a condition that tells them apart may be missing. Equal entries are not always repeated.

Target: human NaV1.8 (Homo sapiens (Human), UniProt Q9Y5Y9)
Experiment: Nav1.8 Qube automated patch-clamp assay
Type: cell-based
Details: human NaV1.8 stably expressed in HEK 293 cells; automated 384-well patch-clamp; resting or inactivated state not specified
In short: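 IC50 values from Hill-equation fits of offline percent inhibition: the 1st pulse gave resting and the 10th pulse inactivated-state inhibition. Stimulus was a 10 s, 1 Hz train to 10 mV (holding −90 mV, −67 mV interpulse) applied at room temperature to HEK293 cells stably expressing human NaV1.8 (Qube).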

Chain of human NaV1.8 (Q9Y5Y9 whole entry): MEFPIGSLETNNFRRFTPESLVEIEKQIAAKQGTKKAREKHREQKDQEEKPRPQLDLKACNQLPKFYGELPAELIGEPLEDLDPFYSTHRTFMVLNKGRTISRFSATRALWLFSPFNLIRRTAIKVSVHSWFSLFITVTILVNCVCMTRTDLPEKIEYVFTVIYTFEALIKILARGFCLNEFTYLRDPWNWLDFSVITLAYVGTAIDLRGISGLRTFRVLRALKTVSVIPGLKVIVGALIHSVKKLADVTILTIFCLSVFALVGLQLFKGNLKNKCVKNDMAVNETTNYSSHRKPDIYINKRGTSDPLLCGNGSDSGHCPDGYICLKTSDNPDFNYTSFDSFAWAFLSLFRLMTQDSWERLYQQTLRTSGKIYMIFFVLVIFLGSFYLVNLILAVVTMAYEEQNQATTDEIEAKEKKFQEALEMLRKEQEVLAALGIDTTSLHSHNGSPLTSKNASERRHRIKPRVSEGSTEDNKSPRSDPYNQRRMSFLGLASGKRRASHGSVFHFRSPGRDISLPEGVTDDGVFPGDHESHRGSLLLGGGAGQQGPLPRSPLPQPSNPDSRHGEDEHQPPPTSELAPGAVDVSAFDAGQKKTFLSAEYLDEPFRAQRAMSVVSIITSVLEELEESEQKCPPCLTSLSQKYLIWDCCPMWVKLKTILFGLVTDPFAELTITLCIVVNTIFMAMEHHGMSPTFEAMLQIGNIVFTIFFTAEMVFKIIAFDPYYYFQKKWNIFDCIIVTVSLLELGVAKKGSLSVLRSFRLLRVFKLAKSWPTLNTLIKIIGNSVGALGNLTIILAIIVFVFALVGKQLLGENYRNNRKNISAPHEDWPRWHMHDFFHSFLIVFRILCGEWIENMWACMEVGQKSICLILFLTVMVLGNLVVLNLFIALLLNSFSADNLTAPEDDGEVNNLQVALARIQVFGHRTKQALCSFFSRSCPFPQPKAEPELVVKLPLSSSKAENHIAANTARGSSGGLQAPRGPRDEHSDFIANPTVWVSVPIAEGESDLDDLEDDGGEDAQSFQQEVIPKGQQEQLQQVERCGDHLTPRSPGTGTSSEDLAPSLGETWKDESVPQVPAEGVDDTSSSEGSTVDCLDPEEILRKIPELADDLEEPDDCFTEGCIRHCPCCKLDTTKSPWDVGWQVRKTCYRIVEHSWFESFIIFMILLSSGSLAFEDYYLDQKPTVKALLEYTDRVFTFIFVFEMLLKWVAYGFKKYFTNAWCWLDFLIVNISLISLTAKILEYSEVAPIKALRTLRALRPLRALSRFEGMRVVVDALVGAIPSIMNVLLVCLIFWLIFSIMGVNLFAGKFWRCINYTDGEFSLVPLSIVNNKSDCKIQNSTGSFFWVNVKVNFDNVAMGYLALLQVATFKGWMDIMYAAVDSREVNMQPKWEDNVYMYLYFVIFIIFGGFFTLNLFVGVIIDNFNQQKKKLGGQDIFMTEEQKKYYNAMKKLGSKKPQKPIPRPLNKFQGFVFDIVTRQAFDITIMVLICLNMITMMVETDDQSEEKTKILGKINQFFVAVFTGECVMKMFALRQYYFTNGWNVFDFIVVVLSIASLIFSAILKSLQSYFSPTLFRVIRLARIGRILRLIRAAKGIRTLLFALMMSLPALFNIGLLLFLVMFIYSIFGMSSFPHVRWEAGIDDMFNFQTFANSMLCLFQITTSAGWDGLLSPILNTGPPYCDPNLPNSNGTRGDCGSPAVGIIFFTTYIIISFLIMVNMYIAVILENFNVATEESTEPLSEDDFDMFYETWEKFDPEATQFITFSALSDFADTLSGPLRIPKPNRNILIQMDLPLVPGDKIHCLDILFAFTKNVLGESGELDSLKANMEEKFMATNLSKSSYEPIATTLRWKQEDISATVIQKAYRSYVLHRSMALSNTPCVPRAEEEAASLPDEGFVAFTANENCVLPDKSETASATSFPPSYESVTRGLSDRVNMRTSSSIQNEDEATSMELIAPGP

O=C1NC[C@@H](C(=O)NC(c2ccc(OC(F)(F)F)c(Cl)c2)c2cnn(C(F)(F)F)c2)N1 (single isomer, unassigned) [Example 41B, (S)—N—((R or S)-(3-chloro-4-(trifluoromethoxy)phenyl)(1-(trifluoromethyl)-1H-pyrazol-4-yl)-l3-methyl)-2-oxoimidazolidine-4-carboxamide]
IC50: 16 nM

O=C1NC[C@@H](C(=O)NC(c2cnc(OC(F)F)c(F)c2)c2ccc(F)c(Cl)c2F)N1 (single isomer, unassigned) [Example 42, (S)-N-((R or S)-(3-chloro-2,4-difluorophenyl)(6-(difluoromethoxy)-5-fluoropyridin-3-yl)methyl)-2-oxoimidazolidine-4-carboxamide]
IC50: 190 nM

O=C1NC[C@@H](C(=O)NC(c2ccc(C(F)F)nc2)c2ccc(F)c(Cl)c2F)N1 (single isomer, unassigned) [Example 43, (S)-N-((R or S)-(3-chloro-2,4-difluorophenyl)(6-(difluoromethyl)pyridin-3-yl)methyl)-2-oxoimidazolidine-4-carboxamide]
IC50: 13 nM

O=C1NC[C@@H](C(=O)NC(c2cnc(C(F)(F)F)c(F)c2)c2ccc(F)c(Cl)c2F)N1 (single isomer, unassigned) [Example 44, (S)-N-((R or S)-(3-chloro-2,4-difluoro-phenyl)(5-fluoro-6-(trifluoromethyl)pyridin-3-yl)methyl)-2-oxoimidazolidine-4-carboxamide]
IC50: 3.1 nM

O=C1NC[C@@H](C(=O)NC(c2ccc(OC(F)(F)F)nc2)c2ccc(F)c(C(F)(F)F)n2)N1 (single isomer, unassigned) [Example 45A, (S)-N-((R or S)-(5-fluoro-6-(trifluoro-methyl)pyridin-2-yl)(6-(trifluoromethoxy)pyridin-3-yl)methyl)-2-oxoimidazolidine-4-carboxamide]
IC50: 10 nM

O=C1NC[C@@H](C(=O)NC(c2ccc(OC(F)(F)F)nc2)c2ccc(F)c(C(F)(F)F)n2)N1 (single isomer, unassigned) [Example 45B, (S)-N-((R or S)-(5-fluoro-6-(trifluoro-methyl)pyridin-2-yl)(6-(trifluoromethoxy)pyridin-3-yl)methyl)-2-oxoimidazolidine-4-carboxamide]
IC50: 125 nM

O=C1NC[C@@H](C(=O)NC(c2cnc(OCC(F)(F)F)c(F)c2)c2ccc(F)c(C(F)(F)F)n2)N1 (single isomer, unassigned) [Example 46B, (S)-N-((R or S)-(5-fluoro-6-(2,2,2-trifluoroethoxy)pyridin-3-yl)(5-fluoro-6-(trifluoromethyl)pyridin-2-yl)methyl)-2-oxoimidazolidine-4-carboxamide]
IC50: 27 nM and 6 nM

O=C1NC[C@@H](C(=O)NC(c2ccc(OC(F)(F)F)c(Cl)c2)c2coc(C(F)(F)F)n2)N1 (single isomer, unassigned) [Example 47A, (S)-N-((R or S)-(3-chloro-4-(trifluoro-methoxy)phenyl)(2-(trifluoromethyl)oxazo 1-4-yl)methyl)-2-oxoimidazolidine-4-carboxamide]
IC50: 5.2 nM

O=C1NC[C@@H](C(=O)NC(c2ccc(OC(F)(F)F)c(Cl)c2)c2coc(C(F)(F)F)n2)N1 (single isomer, unassigned) [Example 47B, (S)-N-((R or S)-(3-chloro-4-(trifluoro-methoxy)phenyl)(2-(trifluoromethyl)oxazo 1-4-yl)methyl)-2-oxoimidazolidine-4-carboxamide]
IC50: 3.9 nM

O=C1NC[C@@H](C(=O)NC(c2cnc(C(F)(F)F)nc2)c2ccc(F)c(Cl)c2F)N1 (single isomer, unassigned) [Example 48, (S)-N-((R or S)-(3-chloro-2,4-difluorophenyl)(2-(trifluoromethyl)pyrimidin-5-yl)methyl)-2-oxoimidazolidine-4-carboxamide]
IC50: 16 nM
